Source: the NIST ThermoML archive (doi:10.1016/j.fluid.2012.08.023)
± gives the expanded uncertainty stated by the source.

Details: Liquid, Closed cell (Static) method

Structure (SMILES)	vapor or sublimation pressure (268.13 K) [kPa]	vapor or sublimation pressure (278.36 K) [kPa]	vapor or sublimation pressure (288.16 K) [kPa]	vapor or sublimation pressure (298.13 K) [kPa]
FC(F)(F)C(F)(F)C(F)(F)C(F)(F)F [decafluorobutane]	91 ± 12	134.6 ± 12	192.9 ± 12	268.8 ± 12
C=C [ethene]	3648.5 ± 22	4611.2 ± 26		
